Experimental data from US8778954B2, “Phenylpyridine derivative and medicinal agent comprising same” (Kowa Company, Ltd., priority 2009, dated 2014).

Tests used:
[1] = test system: Zucker diabetic fatty (ZDF) rats; assay: Activity for diabetic nephropathy in Zucker diabetic fatty rats; type: in vivo, rat; conditions: 3 mg/kg once a day for 15 weeks, FIG. 5
Method: By using 8-week old Zucker diabetic fatty (ZDF) rats, the body weight, the elimination amount of urinary total protein (UTP), the plasma triglyceride concentration (TG), and the plasma total cholesterol concentration (TC) of each rat were measured before administration of the medicine, and group separation was performed by blocking assignment so that there was no variation of these values between respective groups. Solvent control (0.5% MC), 3 mg/kg telmisartan, 3 mg/kg of the compound of Example 21, and 3 mg/kg of the compound of Example 23 were administered iteratively for 15 weeks once a day. UTP, TG, and TC were measured according to a general method during the administration period at 4, 8, 12, and 15 weeks after the administration.
Vehicle, Telmisartan, Compound 23, and Compound 21 in FIGS. 4, 5, and 6 represent solvent control, telmisartan, the compound of Example 23, and the compound of Example 21, respectively. The horizontal axis of FIG. 4-1 represents time (weeks after administration), and the vertical axis represents the elimination amount of urinary total protein per 18 hours. The data in FIG. 4-1 represents average values of each individual in each point, wherein -●- represents Vehicle (solvent control), -♦- represents Telmisartan, -▪- represents Compound 23 (the compound of Example 23), and -▴- represents Compound 21 (the compound of Example 21). The vertical axis of FIG. 4-2 represents the elimination amount of urinary total protein per 18 hours. The data in FIG. 4-2 represents individual values and average values of each individual +standard deviation.
The vertical axis of FIG. 5 represents the plasma triglyceride concentration. The data in FIG. 5 represents individual values and average values of each individual.
The vertical axis of FIG. 6 represents the plasma total cholesterol concentration. The data in FIG. 6 represents individual values and average values of each individual.
Furthermore, it was believed that one reason for the potent activity may be related to improving activity of lipid metabolism, and it is believed that the potent activity is attributed to activities other than the angiotensin receptor antagonistic activity.

db/db mice = assay: Impaired glucose tolerance improving activity in type 2 diabetes model mouse; type: in vivo; conditions: oral once a day, Example 23 10 mg/kg, Example 21 30 mg/kg, telmisartan 30 mg/kg
Method: By using 7-week old db/db mice, the body weight and the plasma glucose concentration of each mouse were measured before administration of the medicine, and group separation was performed by blocking assignment so that there was no variation of these values between respective groups. Solvent control (0.5% MC), 5 mg/kg rosiglitazone, 30 mg/kg telmisartan, 10 mg/kg of the compound of Example 23, and 30 mg/kg of the compound of Example 21 were orally administered iteratively for 4 weeks, once a day. Blood collecting was performed from the orbital vein plexus, and the plasma glucose concentration was measured at 2 weeks after the initiation of the administration. Furthermore, oral glucose tolerance test was performed at 4 weeks after the initiation of the administration. Specifically, the mouse was fasted for 24 hours from the night before the glucose tolerance test, and then a glucose solution was orally administered at a dose of 2 g/kg. The blood was collected from the tail vein of the mouse at 15, 30, 60, and 120 minutes after the administration of the glucose solution, and the concentration of the plasma glucose was measured. The area surrounded with the measured plasma glucose concentration and the time was taken as the area under the curve (AUC), and AUC for 120 minutes after administration of the glucose solution was estimated from the trapezoidal method.
Vehicle, Rosiglitazone, Telmisartan, Compound 23, and Compound 21 in FIGS. 2 and 3 represent solvent control, rosiglitazone, telmisartan, the compound of Example 23, and the compound of Example 21, respectively. The vertical axis of FIG. 2 represents the plasma glucose concentration. The data in FIG. 2 represents individual values and average values of each individual. The vertical axis of FIG. 3 represents the area under the curve surrounded with the plasma glucose concentration and the time (for 120 minutes after administration of the glucose solution). The data in FIG. 3 represents individual values and average values of each individual. […] Such activities were not confirmed for the telmisartan administration group.

human PPARγ2 = molecular target: T1, human PPARγ2 (Homo sapiens, UniProt P37231); assay: PPARγ activation activity, Gal4-PPARγ2 LBD luciferase transfection assay using COS7 cells; type: cell-based; conditions: Gal4-human PPARγ2 LBD chimera, 16 hours, rosiglitazone = 100%
T1 construct: the amino acids 182 to 505 of human PPARγ2; expressed in transfected cells; host or cells: COS7 cells (African green monkey kidney)
T1 sequence (P37231 182-505): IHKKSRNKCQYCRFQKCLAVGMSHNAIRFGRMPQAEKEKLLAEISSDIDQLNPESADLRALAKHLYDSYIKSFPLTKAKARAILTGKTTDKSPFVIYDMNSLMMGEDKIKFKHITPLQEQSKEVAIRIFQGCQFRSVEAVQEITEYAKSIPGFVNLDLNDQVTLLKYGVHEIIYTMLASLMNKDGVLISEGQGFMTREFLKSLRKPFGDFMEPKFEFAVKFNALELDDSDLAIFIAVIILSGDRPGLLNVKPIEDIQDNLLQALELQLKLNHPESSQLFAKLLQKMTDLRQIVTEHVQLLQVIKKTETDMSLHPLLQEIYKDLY
Method: The agonistic activity of the compounds of the invention on PPARγ was measured based on the transfection assay using COS7 cells (DS Pharma Biomedical Co., Ltd., Osaka, Japan), which are the cell line derived from the kidney of the African green monkey. COS7 cells were cultured under 5% CO2 concentration, and DMEM medium containing 10% fetal bovine serum, glutamic acid, and antibiotics was used as a medium.
As an expression vector, a chimera in which DNA binding domain of Gal4, which is a yeast transcription factor, and ligand binding domain of human PPARγ2 are fused, i.e., a fused product between the amino acids 1 to 147 of Gal4 transcription factor and the amino acids 182 to 505 of human PPARγ2, was used. Furthermore, as a reporter vector, a firefly luciferase containing five copies of Gal4 recognition sequence in the promoter region was used. Plasmid transfection to the cells was performed according to a method which uses jetPEI (trade name, manufactured by Funakoshi Co., Ltd., Tokyo, Japan). Furthermore, β-galactosidase expression vector was employed as an internal standard.
After the transfection of the cells, the medium was replaced with a DMEM medium (containing 1% serum) added with the test compound, and the cells were further cultured for 16 hours. After that, the luciferase activity and β-galactosidase activity in the cell lysis solution were measured.
For the present test, dimethyl sulfoxide (DMSO) was used for dissolution and dilution of the test compounds, and during the cell treatment, the DMSO concentration in DMEM medium (containing 1% serum) was adjusted to 0.1%. As a positive compound, rosiglitazone (trade name, manufactured by ALEXIS Corporation, Switzerland) was used. The luciferase activity (%) of the test compounds (1 to 30 μmol/L) was calculated when the luciferase activity of rosiglitazone (3 to 10 μmol/L) is 100% and the luciferase activity in the absence of the test compound is 0%. The 50% effective concentration of the test compound (EC50, 50% effect concentration) was calculated by using SAS Preclinical Package Ver 5.0 (trade name, manufactured by SAS institute Japan Co., Tokyo, Japan), which is a statistical analysis program.
EC50 values of these compounds are described in Table 2. […] Under the same condition, the PPARγ activation activity of telmisartan, i.e., EC50, was 1 to 5 μM.

For `CCCc1nc2c(C)cc(-c3nc4ccccc4n3C)cc2n1Cc1ccc(-c2ccccc2C(=O)O)cc1` [telmisartan, reference compound], the plasma triglyceride concentration [1] was “such activity was not found”, the plasma glucose concentration (db/db mice; 2 weeks after initiation, FIG. 2) was “not confirmed” and the “AUC of plasma glucose in the glucose tolerance test (120 minutes after glucose solution)” value (db/db mice; 4 weeks, glucose 2 g/kg, FIG. 3) was “not confirmed”. For the same molecule, the EC50 (human PPARγ2) was 1000 to 5000 nM.
